Experimental data reported in US10188756B2, “Imaging histone deacetylases with a radiotracer using positron emission tomography” (THE GENERAL HOSPITAL CORPORATION, priority 2013, dated 2019).

What was measured:
HDAC2 = HDAC2 (Homo sapiens (Human), UniProt Q92769); test: HDAC inhibition assay; assay type: biochemical
Text: (§1) All histone deacetylases were purchased from BPS Bioscience. […] All the other reagents were purchased from Sigma-Aldrich.

HDAC3 = HDAC3 (Homo sapiens (Human), UniProt O15379); test: HDAC inhibition assay; conditions: read-out: IC50 HDAC3
Protocol: (§2) All histone deacetylases were purchased from BPS Bioscience. […] All the other reagents were purchased from Sigma-Aldrich. Caliper EZ reader II system was used to collect all data. […] Purified HDACs were incubated with 2 μM carboxyfluorescein (FAM)-labeled acetylated or trifluoroacetylated peptide substrate (Broad Substrate A and B respectively) and test compound for 60 minutes at room temperature, in HDAC assay buffer that contained 50 mM HEPES (pH 7.4), 100 mM KCl, 0.01% BSA and 0.001% Tween-20. […] Substrate and product were separated electrophoretically and fluorescence intensity in the substrate and product peaks was determined and analyzed by Labchip EZ Reader. The reactions were performed in duplicate for each sample. IC50 values were automatically calculated by Origin 8 using 4 Parameter Logistic Model. The percent inhibition was plotted against the compound concentration, and the IC50 value was determined from the logistic dose-response curve fitting by Origin 8.0 software.

HDAC1 = HDAC1 (Homo sapiens (Human), UniProt Q13547); test: HDAC inhibition assay; conditions: read-out: IC50 HDAC1
Sequence of HDAC1 (Q13547 whole entry): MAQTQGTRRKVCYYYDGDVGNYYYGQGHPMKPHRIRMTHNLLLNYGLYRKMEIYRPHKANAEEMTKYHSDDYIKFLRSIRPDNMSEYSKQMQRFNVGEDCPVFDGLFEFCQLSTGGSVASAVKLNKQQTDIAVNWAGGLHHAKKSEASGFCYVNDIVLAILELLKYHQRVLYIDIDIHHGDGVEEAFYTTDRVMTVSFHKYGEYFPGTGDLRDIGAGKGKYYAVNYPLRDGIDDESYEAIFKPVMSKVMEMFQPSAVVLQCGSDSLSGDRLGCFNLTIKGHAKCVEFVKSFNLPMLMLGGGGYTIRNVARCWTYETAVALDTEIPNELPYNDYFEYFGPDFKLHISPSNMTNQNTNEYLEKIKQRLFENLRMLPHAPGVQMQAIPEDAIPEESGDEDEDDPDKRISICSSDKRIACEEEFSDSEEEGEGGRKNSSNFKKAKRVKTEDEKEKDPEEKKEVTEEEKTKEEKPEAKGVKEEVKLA
Protocol: as §2

HDAC8 = HDAC8 (Homo sapiens (Human), UniProt Q9BY41); test: HDAC inhibition assay; assay type: biochemical
Text: as §1

HDAC6 = HDAC6 (Homo sapiens (Human), UniProt Q9UBN7); test: HDAC inhibition assay; assay type: biochemical
Sequence of HDAC6 (Q9UBN7 whole entry): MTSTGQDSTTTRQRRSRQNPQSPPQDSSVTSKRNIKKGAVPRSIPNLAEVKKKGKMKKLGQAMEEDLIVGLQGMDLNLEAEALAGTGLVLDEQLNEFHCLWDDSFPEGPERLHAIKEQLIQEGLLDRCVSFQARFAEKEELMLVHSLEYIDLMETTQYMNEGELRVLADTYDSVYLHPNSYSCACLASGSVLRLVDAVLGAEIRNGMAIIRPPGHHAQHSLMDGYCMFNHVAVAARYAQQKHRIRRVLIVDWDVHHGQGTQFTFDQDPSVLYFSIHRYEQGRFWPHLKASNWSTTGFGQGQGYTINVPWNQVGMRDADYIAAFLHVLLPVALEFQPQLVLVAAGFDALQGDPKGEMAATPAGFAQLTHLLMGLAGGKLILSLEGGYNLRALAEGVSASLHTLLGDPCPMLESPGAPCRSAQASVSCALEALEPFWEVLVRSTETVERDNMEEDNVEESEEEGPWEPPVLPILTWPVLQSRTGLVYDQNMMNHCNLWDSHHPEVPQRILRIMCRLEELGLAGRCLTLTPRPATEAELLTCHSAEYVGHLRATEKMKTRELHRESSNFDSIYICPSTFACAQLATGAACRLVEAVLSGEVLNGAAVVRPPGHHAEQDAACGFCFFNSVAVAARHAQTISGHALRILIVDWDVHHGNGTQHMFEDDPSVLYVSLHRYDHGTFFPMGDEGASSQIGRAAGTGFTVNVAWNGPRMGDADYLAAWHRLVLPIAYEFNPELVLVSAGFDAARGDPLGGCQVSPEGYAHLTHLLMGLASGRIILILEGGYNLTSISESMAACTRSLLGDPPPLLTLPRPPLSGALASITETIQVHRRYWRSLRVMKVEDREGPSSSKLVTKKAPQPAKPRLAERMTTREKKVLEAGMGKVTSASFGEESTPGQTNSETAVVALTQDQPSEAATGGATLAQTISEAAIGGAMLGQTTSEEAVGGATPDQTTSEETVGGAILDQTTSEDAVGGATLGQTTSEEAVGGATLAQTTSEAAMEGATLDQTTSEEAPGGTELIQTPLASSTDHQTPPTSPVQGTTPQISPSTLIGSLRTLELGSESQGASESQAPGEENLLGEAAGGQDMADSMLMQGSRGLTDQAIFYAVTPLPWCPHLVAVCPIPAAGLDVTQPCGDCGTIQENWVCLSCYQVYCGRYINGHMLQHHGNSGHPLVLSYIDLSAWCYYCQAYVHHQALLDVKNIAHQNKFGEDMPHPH
Text: as §1

HDAC9 = HDAC9 (Homo sapiens (Human), UniProt Q9UKV0); test: HDAC inhibition assay; conditions: read-out: IC50 HDAC9
Sequence of HDAC9 (Q9UKV0 whole entry): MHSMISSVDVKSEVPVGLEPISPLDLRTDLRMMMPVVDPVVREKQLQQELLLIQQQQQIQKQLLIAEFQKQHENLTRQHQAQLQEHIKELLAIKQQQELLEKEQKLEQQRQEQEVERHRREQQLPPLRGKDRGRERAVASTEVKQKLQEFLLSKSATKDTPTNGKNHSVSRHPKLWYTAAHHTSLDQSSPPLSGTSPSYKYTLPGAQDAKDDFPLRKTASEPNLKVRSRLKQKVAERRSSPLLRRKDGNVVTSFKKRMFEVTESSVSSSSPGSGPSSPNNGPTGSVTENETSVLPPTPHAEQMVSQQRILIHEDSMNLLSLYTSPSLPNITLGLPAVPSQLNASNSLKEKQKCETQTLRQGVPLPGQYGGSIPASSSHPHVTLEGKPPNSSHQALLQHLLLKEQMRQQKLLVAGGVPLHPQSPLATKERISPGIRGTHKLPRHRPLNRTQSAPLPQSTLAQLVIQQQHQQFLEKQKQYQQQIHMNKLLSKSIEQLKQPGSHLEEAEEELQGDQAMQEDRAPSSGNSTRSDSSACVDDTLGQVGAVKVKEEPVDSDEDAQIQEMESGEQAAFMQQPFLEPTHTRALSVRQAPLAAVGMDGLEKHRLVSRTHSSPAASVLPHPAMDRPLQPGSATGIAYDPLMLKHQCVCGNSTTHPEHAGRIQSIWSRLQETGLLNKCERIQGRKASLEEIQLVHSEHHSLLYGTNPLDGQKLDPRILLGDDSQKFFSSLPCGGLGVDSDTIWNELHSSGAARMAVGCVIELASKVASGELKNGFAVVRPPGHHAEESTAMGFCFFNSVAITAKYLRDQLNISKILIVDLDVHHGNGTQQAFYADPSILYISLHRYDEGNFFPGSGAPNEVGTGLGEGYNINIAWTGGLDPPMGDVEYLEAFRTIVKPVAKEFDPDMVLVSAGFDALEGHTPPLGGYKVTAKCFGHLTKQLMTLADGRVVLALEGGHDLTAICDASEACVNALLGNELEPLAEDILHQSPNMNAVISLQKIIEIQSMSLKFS
Protocol: as §2

HDAC5 = HDAC5 (Homo sapiens (Human), UniProt Q9UQL6); test: HDAC inhibition assay; conditions: read-out: IC50 HDAC5
Sequence of HDAC5 (Q9UQL6 whole entry): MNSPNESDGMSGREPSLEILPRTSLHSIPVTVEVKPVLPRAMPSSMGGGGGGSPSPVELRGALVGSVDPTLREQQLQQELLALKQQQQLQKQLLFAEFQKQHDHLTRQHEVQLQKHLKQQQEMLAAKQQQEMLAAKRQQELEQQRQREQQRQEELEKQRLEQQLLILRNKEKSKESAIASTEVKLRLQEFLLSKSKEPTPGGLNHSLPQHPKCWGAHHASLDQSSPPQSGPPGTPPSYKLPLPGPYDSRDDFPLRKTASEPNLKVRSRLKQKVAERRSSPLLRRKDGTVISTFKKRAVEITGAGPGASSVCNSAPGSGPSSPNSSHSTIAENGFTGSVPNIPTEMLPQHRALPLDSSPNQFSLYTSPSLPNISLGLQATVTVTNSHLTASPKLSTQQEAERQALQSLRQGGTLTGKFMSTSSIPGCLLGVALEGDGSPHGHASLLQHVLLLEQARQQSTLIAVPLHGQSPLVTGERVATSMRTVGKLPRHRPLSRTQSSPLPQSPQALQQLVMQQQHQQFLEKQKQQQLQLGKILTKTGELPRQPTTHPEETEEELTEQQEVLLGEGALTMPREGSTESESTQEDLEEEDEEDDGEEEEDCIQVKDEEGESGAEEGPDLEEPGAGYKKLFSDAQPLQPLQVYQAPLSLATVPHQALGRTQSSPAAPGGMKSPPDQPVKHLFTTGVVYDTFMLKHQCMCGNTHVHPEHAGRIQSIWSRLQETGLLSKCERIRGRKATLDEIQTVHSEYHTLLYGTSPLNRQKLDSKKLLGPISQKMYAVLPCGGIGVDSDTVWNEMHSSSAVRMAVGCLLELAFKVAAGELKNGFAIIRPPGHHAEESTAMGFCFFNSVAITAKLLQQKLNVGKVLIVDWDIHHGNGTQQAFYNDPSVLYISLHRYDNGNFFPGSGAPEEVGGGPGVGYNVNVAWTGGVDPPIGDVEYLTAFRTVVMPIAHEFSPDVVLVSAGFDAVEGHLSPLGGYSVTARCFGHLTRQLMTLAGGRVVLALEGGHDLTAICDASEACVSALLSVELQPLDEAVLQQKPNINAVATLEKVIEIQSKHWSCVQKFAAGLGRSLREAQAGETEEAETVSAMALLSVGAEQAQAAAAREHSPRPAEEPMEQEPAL
Protocol: as §2

HDAC7 = HDAC7 (Homo sapiens (Human), UniProt Q8WUI4); test: HDAC inhibition assay; conditions: read-out: IC50 HDAC7
Protocol: as §2

HDAC4 = HDAC4 (Homo sapiens (Human), UniProt P56524); test: HDAC inhibition assay; conditions: read-out: IC50 HDAC4
Sequence of HDAC4 (P56524 whole entry): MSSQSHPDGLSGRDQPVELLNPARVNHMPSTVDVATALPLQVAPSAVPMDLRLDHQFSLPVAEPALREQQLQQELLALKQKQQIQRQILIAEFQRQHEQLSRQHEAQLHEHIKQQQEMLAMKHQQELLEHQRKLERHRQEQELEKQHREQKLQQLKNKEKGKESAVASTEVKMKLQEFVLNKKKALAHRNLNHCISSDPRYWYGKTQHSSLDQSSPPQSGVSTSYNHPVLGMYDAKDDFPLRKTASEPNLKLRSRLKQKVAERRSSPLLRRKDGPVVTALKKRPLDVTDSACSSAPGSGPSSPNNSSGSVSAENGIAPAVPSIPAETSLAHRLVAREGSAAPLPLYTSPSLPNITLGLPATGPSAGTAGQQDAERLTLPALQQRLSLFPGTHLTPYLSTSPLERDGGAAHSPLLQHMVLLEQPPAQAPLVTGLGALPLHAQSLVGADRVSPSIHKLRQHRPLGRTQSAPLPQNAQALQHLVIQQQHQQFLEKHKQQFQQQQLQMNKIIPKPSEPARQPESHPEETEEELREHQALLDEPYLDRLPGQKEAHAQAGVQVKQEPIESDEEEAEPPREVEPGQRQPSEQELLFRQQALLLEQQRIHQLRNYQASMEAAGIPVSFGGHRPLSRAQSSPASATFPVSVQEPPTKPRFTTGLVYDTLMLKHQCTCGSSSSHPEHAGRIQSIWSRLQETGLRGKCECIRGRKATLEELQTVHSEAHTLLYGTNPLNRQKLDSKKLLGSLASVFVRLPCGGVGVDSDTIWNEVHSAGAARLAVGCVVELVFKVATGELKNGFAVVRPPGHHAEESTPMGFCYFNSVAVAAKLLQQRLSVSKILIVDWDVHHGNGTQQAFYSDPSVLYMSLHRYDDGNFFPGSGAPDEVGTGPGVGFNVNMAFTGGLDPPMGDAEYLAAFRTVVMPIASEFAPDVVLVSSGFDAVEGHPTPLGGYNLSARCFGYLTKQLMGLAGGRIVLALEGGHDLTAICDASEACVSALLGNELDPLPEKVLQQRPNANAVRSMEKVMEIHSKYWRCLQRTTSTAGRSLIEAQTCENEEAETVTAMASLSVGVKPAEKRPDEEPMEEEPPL
Protocol: as §2

histone deacetylases = test: Baboon PET/MR imaging with [11C]CN133; assay type: in vivo, baboon (Papio anubis); conditions: for VT (Ichese MAI), CN147 blocked / VT (Logan Plot), CN147 blocked: [11C]CN133 VT after CN147 0.5 mg/kg intravenous; for VT (Ichese MAI), % Difference / VT (Logan Plot), % Difference: baseline vs CN147 blocked
Protocol: A female Papio Anubis baboon, deprived of food for 12 hours prior to the study, was administered intramuscular ketamine (10 mg/kg) and intubated. For maintenance of anesthesia throughout the study, the baboon was provided 1%-4% isoflurane (Forane) in a mixture of medical oxygen and nitrogen. The baboon was catheterized antecubitally for radiotracer injection and a radial arterial line was placed for metabolite analysis. MR-PET images were acquired in a BiographmMR scanner (Siemens, Munich, Germany), and PET compatible 8-channel coil arrays for non-human primate brain imaging with a PET resolution of 5 mm and field of view of 59.4 cm and 25.8 cm (transaxial and axial, respectively). Dynamic PET image acquisition was initiated followed by administration of the radiotracer in a homogenous solution of 10% ethanol and 90% isotonic saline. An […] sequence began after 30 minutes of the baseline scan for anatomic coregistration. […] Both scans were carried out in the same animal on the same day, separated by 2.5 hours. In both scans, 4-5 mCi of [^11C]CN133 was administered to the baboon. Dynamic data from the PET scans were recorded in list mode and corrected for attenuation. Baboon data were reconstructed using a 3D-OSEM method resulting in a full width at half-maximum resolution of 4 mm.
Volumes of interest (VOIs) were drawn manually as spheres in brain regions guided by high resolution MR structural images and summed PET data, with a radius no less than 4 mm. A common VOI mask was applied to both baboon scans. Time-activity curves (TACs) were exported in terms of decay corrected activity per unit volume at specified time points with gradually increasing intervals. The TACs were expressed as percent injected dose per unit volume for analysis.
Arterial samples collected during imaging from the baboon were centrifuged to obtain plasma, which was then removed and placed in an automated gamma counter that was calibrated to the PET scanner. Metabolite analysis was conducted on a custom automated robot fitted with Phenomenex SPE Strata-X 500 mg solid phase extraction cartridges that were primed with ethanol (2 mL) and deionized water (20 mL). Protein precipitation was achieved by addition of plasma (300 μL) to acetonitrile (300 μL), which was centrifuged for 1 minute to obtain protein-free plasma (PFP). 300 μL of PFP/acetonitrile solution was diluted into deionized water (3 mL), loaded onto the C18 cartridge, and removed of polar metabolites with 100% water. Next, a series of extractions were performed using water and acetonitrile in quantities: 95:5, 90:10, 85:15, 80:20, 70:30, 60:40, 30:70 and 100% acetonitrile at a volume of 4 mL. A control experiment was performed before metabolite analysis to determine the retention of the parent compound by injection of a small amount of [^11C]CN133 onto a test series of extraction cartridges. Each sample was counted in a WIZARD2 Automatic Gamma Counter to determine the presence of radiolabeled metabolites.
CN147 blocks ˜40% of [^11C]CN133 binding in NHP whole brain and in cerebellum. Plasma-normalized data were evaluated by volume of interest analysis (VOI) at the whole brain level and at level of the cerebellum. VOI data were then applied to distribution volume (VT) data analysis by two graphical methods using PMOD software, tabulated in Tables A and B below. Logan Plot and Ichese MAI methods were clarified from previous NHP imaging analyses to provide an accurate VT estimate (+/− standard error) from data beginning 35 min after injection of radiotracer (t*=35 min) until the end of the scan (t=80min).

Compound | IC50 (HDAC2) | IC50 (HDAC3) | IC50 (HDAC1) | IC50 (HDAC8) | IC50 (HDAC6) | IC50 (HDAC9) | IC50 (HDAC5) | IC50 (HDAC7) | IC50 (HDAC4) | VT (Ichese MAI), CN147 blocked (histone deacetylases; Cerebellum VOI) | VT (Logan Plot), CN147 blocked (histone deacetylases; Cerebellum VOI) | VT (Ichese MAI), % Difference (histone deacetylases; Cerebellum VOI) | VT (Logan Plot), % Difference (histone deacetylases; Cerebellum VOI) | blocking of [11C]CN133 binding (histone deacetylases; NHP whole brain and cerebellum) | VT (Ichese MAI), CN147 blocked (histone deacetylases; Whole Brain VOI) | VT (Logan Plot), CN147 blocked (histone deacetylases; Whole Brain VOI) | VT (Ichese MAI), % Difference (histone deacetylases; Whole Brain VOI) | VT (Logan Plot), % Difference (histone deacetylases; Whole Brain VOI)
CNc1ccc(C(=O)NCCCCC(=O)NO)cc1 [CN51] | 477 nM | 84.5 nM | 106 nM | – | – | – | – | – | – | – | – | – | – | – | – | – | – | –
CN(C)c1ccc(C(=O)NCCCCCCC(=O)NO)cc1 [CN52] | 20.7 nM | 4.3 nM | 7.3 nM | – | – | – | – | – | – | – | – | – | – | – | – | – | – | –
CNc1ccc(C(=O)NCCCCCCC(=O)NO)cc1 [CN53] | 11.9 nM | 5.7 nM | 6.1 nM | – | – | – | – | – | – | – | – | – | – | – | – | – | – | –
CN(C)CCOc1ccc2c(c1)C(c1ccc(C(=O)NO)cc1)=Nc1ccccc1O2 [CN56] | 160 nM | 97.8 nM | 270 nM | – | – | – | – | – | – | – | – | – | – | – | – | – | – | –
O=C(/C=C/c1ccccc1)NO [CN86] | 470 nM | 151 nM | 133 nM | 725 nM | 21.7 nM | > 50000 nM | > 10000 nM | > 20000 nM | > 10000 nM | – | – | – | – | – | – | – | – | –
COc1ccc(/C=C/C(=O)NO)cc1 [CN87] | 833 nM | 238 nM | 301 nM | 2570 nM | 23.2 nM | > 70000 nM | > 10000 nM | > 70000 nM | > 70000 nM | – | – | – | – | – | – | – | – | –
CN(c1ccccc1)S(=O)(=O)c1cccc(/C=C/C(=O)NO)c1 [CN88] | 52.9 nM | 13.7 nM | 17.8 nM | 925 nM | 4.1 nM | > 10000 nM | 7950 nM | 2020 nM | 3830 nM | – | – | – | – | – | – | – | – | –
CN(CCc1ccccc1)S(=O)(=O)c1cccc(/C=C/C(=O)NO)c1 [CN89] | 32 nM | 3.4 nM | 5 nM | 150 nM | 5 nM | > 10000 nM | > 10000 nM | – | 500 nM | – | – | – | – | – | – | – | – | –
CCCCc1nc2cc(/C=C/C(=O)NO)ccc2n1CCN(C)C [CN101] | 18 nM | 1.9 nM | 4.7 nM | 2370 nM | 8.4 nM | > 50000 nM | > 10000 nM | > 40000 nM | > 10000 nM | – | – | – | – | – | – | – | – | –
Cn1cc(CCNCc2ccc(/C=C/C(=O)NO)cc2)c2ccccc21 [CN107] | 1.2 nM | 0.4 nM | 0.2 nM | 1040 nM | 1.6 nM | 4850 nM | 99 nM | 2040 nM | 655 nM | – | – | – | – | – | – | – | – | –
COc1ccc2c(c1)C(=O)N(CCCCCC(=O)NO)c1ccccc1S2 [CN112] | 4 nM | 1.1 nM | 1.2 nM | > 70000 nM | 2.3 nM | 1470 nM | > 20000 nM | – | > 10000 nM | – | – | – | – | – | – | – | – | –
COc1ccc2c(c1)C(=O)N(CCCCCC(=O)NO)c1ccccc1S2(=O)=O [CN113] | 2 nM | 1.3 nM | 0.8 nM | 2840 nM | 1.2 nM | > 20000 nM | 3850 nM | 9650 nM | 9450 nM | – | – | – | – | – | – | – | – | –
O=C(/C=C/c1ccc(CNCC23CC4CC(CC(C4)C2)C3)cc1)NO [CN132] | 7.8 nM | 1.2 nM | 0.95 nM | > 10000 nM | 1.7 nM | > 10000 nM | – | > 20000 nM | – | – | – | – | – | – | – | – | – | –
CN(Cc1ccc(/C=C/C(=O)Nc2ccccc2N)cc1)CC12CC3CC(CC(C3)C1)C2 [CN147] | – | – | – | – | – | – | – | – | – | 11.68 ± 8.42 | 11.59 ± 3.37 | 39.95% | 39.89% | ~40% | 8.92 ± 9.26 | 8.85 ± 3.06 | 39.11% | 38.80%

More lines, main results first:

IC50 (HDAC2) | IC50 (HDAC3) | IC50 (HDAC1) | IC50 (HDAC8) | IC50 (HDAC6) | IC50 (HDAC9) | IC50 (HDAC5) | IC50 (HDAC7) | IC50 (HDAC4) | Compound | VT (Ichese MAI), CN147 blocked (histone deacetylases; Cerebellum VOI) | VT (Logan Plot), CN147 blocked (histone deacetylases; Cerebellum VOI) | VT (Ichese MAI), % Difference (histone deacetylases; Cerebellum VOI) | VT (Logan Plot), % Difference (histone deacetylases; Cerebellum VOI) | blocking of [11C]CN133 binding (histone deacetylases; NHP whole brain and cerebellum) | VT (Ichese MAI), CN147 blocked (histone deacetylases; Whole Brain VOI) | VT (Logan Plot), CN147 blocked (histone deacetylases; Whole Brain VOI) | VT (Ichese MAI), % Difference (histone deacetylases; Whole Brain VOI) | VT (Logan Plot), % Difference (histone deacetylases; Whole Brain VOI)
– | 97.9 nM | 55.8 nM | 2400 nM | 14.4 nM | > 10000 nM | 207 nM | 5510 nM | 389 nM | CN(Cc1ccc2c(c1)CCC(C(=O)NO)=C2)CC12CC3CC(CC(C3)C1)C2 [CN141] | – | – | – | – | – | – | – | – | –
– | 4.3 nM | 1.8 nM | 9600 nM | 9.7 nM | > 10000 nM | 196 nM | > 20000 nM | 927 nM | O=C(/C=C/c1ccc(CNCC2CCCCC2)cc1)NO [CN143] | – | – | – | – | – | – | – | – | –
– | 9240 nM | > 50000 nM | – | 6820 nM | – | > 70000 nM | – | – | CN(C)Cc1ccc(/C=C/C(=O)NO)cc1 [CN145] | – | – | – | – | – | – | – | – | –
– | 470 nM | 221 nM | > 30000 nM | 308 nM | > 40000 nM | 5350 nM | > 30000 nM | > 10000 nM | O=C(/C=C/c1ccc(CN(CCF)CC23CC4CC(CC(C4)C2)C3)cc1)NO [CN146] | – | – | – | – | – | – | – | – | –
6.4 nM | 0.5 nM | 0.78 nM | 4900 nM | 9.5 nM | > 50000 nM | 4310 nM | > 50000 nM | > 70000 nM | O=C(/C=C/c1ccc(CNCC23CC4CC(CC(C4)C2)C3)c(F)c1)NO [CN148] | – | – | – | – | – | – | – | – | –
– | 0.76 nM | 0.78 nM | > 50000 nM | 11.7 nM | > 50000 nM | 4750 nM | > 50000 nM | 20300 nM | CN(Cc1ccc(/C=C/C(=O)NO)cc1F)CC12CC3CC(CC(C3)C1)C2 [CN149] | – | – | – | – | – | – | – | – | –
307 nM | 143 nM | 96.7 nM | 493 nM | 2.13 nM | – | – | – | – | CCCCN(Cc1ccc(C(=O)NO)cc1)C(=O)Nc1ccccc1OC [CN165] | – | – | – | – | – | – | – | – | –
14.2 nM | 0.54 nM | 1.64 nM | 725 nM | 11.7 nM | – | – | – | – | O=C(/C=C/c1ccc(CNCC2CCCCC2)c(F)c1)NO [CN166] | – | – | – | – | – | – | – | – | –
40 nM | 4.83 nM | 5.43 nM | 1810 nM | 18.7 nM | – | – | – | – | CN(Cc1ccc(/C=C/C(=O)NO)cc1F)CC1CCCCC1 [CN167] | – | – | – | – | – | – | – | – | –
